Series [1] relates to A/Udorn/72 (H3N2) virus (M2-WT). The series can be described thus: microbe, parasite or virus in culture. In kind it is cell-based. Conditions: Influenza A virus, H3N2, MDCK, read-out: Antiviral Efficacy EC50, A/Udorn/72 (H3N2) M2-WT.
The test system of series [2] is influenza A/Solomon Islands/3/2006 (H1N1) virus. The arrangement: species or system BALB/c mice. Conditions: mouse, in vivo.
For series [3] the following is noted: mouse, in vivo.
The test system of the next series is MDCK cells. As to conditions: read-out: Cytotoxicity CC50, neutral red, 24 h.

“And” between values parts separate entries of the source, which are not always exact repeats. Identical values can stand only once. Marks after values point to notes of the source that are not given here.

`NC12CC3CC(CC(C3)C1)C2` [Amantadine (1), amantadine]: the EC50 in series [1] turned out to be […]. In series [2], the “MDD ± SD (mean day of death)” value is 13.0 ± 6.4 days and 9.4 ± 1.9 days; the Survivors/Total was […]; the “survival rate / protection” value was […].

Broadly, the CC50 is the concentration that lowers cell viability or growth by half. In the case of `NC1CCC2(CC1)C1CC3CC(C1)CC2C3` (stereo not drawn) [Compound 3, spiroadamantane amine], in series [3], the “body weight difference compared to placebos and normal control animals” value is recorded as 3%; the tolerability entry is listed as “well tolerated”. In series [2], the Survivors/Total is 7/10^*** and 1/10 and 0/10; the “survival rate / protection” value is 70%. Also, the 50% cytotoxic concentration (CC50) in the series with MDCK cells amounted to 27.6 ± 0.5 µM.
